Measurements published in ChEMBL document CHEMBL1201862, “PubChem BioAssay data set” (2004).
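Tested at 5 concentrations; 48 h exposure; 96-well plates; endpoints linearly interpolated, else capped at highest concentration. Abbreviation: GI50, concentration required for 50% inhibition of growth.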 The source made the active and inactive calls. Cut-off read from the data, not from the text of the source: active = GI50 up to about 1.1 µM and inactive = higher.

Key:
Test in all cases: NCI-60 cell line screen, 48 h
HL-60 = tested on: HL-60
KM12 = tested on: KM12
SN12C = tested on: SN12C
IGROV-1 = tested on: IGROV-1
UACC-257 = tested on: UACC-257
OVCAR-5 = tested on: OVCAR-5
HCT-15 = tested on: HCT-15
HT-29 = tested on: HT-29
SR = tested on: SR
A498 = tested on: A498
ACHN = tested on: ACHN
HCT-116 = tested on: HCT-116
LOX IMVI = tested on: LOX IMVI
OVCAR-4 = tested on: OVCAR-4
PC-3 = tested on: PC-3
SW-620 = tested on: SW-620
EKVX = tested on: EKVX
A549 = tested on: A549
NCI-H23 = tested on: NCI-H23
BT-549 = tested on: BT-549
K562 = tested on: K562
SK-MEL-28 = tested on: SK-MEL-28
M14 = tested on: M14
Hs-578T = tested on: Hs-578T
SF-539 = tested on: SF-539
DU-145 = tested on: DU-145
MDA-MB-435 = tested on: MDA-MB-435
MDA-MB-231 = tested on: MDA-MB-231
MDA-N = tested on: MDA-N
NCI-H226 = tested on: NCI-H226
COLO 205 = tested on: COLO 205
HOP-92 = tested on: HOP-92
RXF 393 = tested on: RXF 393
786-0 = tested on: 786-0
NCI-H522 = tested on: NCI-H522
OVCAR-3 = tested on: OVCAR-3
SK-MEL-2 = tested on: SK-MEL-2
SNB-75 = tested on: SNB-75
NCI-H460 = tested on: NCI-H460
T47D = tested on: T47D
CCRF-CEM = tested on: CCRF-CEM
Malme-3M = tested on: Malme-3M
UO-31 = tested on: UO-31
MCF7 = tested on: MCF7
TK-10 = tested on: TK-10
U-251 = tested on: U-251
SK-OV-3 = tested on: SK-OV-3
OVCAR-8 = tested on: OVCAR-8
HOP-62 = tested on: HOP-62
SK-MEL-5 = tested on: SK-MEL-5
MOLT-4 = tested on: MOLT-4
SF-295 = tested on: SF-295
RPMI-8226 = tested on: RPMI-8226
CAKI-1 = tested on: CAKI-1
HCC 2998 = tested on: HCC 2998
SF-268 = tested on: SF-268
NCI/ADR-RES = tested on: NCI/ADR-RES
UACC-62 = tested on: UACC-62
SNB-19 = tested on: SNB-19

Measured: GI50

CCOc1cc2oc(C)cc(=O)c2c(OC)c1/C=N/c1ccc(Cn2c(C)nc3ccccc32)cc1
> 100 µM: HCT-15
inactive: HL-60 > 100 µM | KM12 > 100 µM | SN12C > 100 µM | IGROV-1 > 100 µM | UACC-257 > 100 µM | OVCAR-5 > 100 µM | HT-29 > 100 µM | SR > 100 µM | A498 > 100 µM | ACHN > 100 µM | HCT-116 > 100 µM | LOX IMVI > 100 µM | OVCAR-4 > 100 µM | PC-3 > 100 µM | SW-620 > 100 µM | EKVX > 100 µM | A549 > 100 µM | NCI-H23 > 100 µM | BT-549 > 100 µM | K562 > 100 µM | SK-MEL-28 > 100 µM | M14 > 100 µM | Hs-578T > 100 µM | SF-539 > 100 µM | DU-145 > 100 µM | MDA-MB-435 > 100 µM | MDA-MB-231 > 100 µM | MDA-N > 100 µM | NCI-H226 > 100 µM | COLO 205 > 100 µM | HOP-92 > 100 µM | RXF 393 > 100 µM | 786-0 > 100 µM | NCI-H522 > 100 µM | OVCAR-3 > 100 µM | SK-MEL-2 > 100 µM | SNB-75 > 100 µM | NCI-H460 > 100 µM | T47D > 100 µM | CCRF-CEM > 100 µM | Malme-3M > 100 µM | UO-31 > 100 µM | MCF7 > 100 µM | TK-10 > 100 µM | U-251 > 100 µM | SK-OV-3 > 100 µM | OVCAR-8 > 100 µM | HOP-62 > 100 µM | SK-MEL-5 > 100 µM | MOLT-4 > 100 µM | SF-295 > 100 µM | RPMI-8226 > 100 µM | CAKI-1 > 100 µM | HCC 2998 > 100 µM | SF-268 > 100 µM | NCI/ADR-RES > 100 µM | UACC-62 > 100 µM | SNB-19 > 100 µM
